Source: patent publication US12178842B2, “PCSK9 antagonist compounds” (MERCK SHARP & DOHME LLC, priority 2019, dated 2024)

How the values were obtained:
Type in all cases: binding
[1] = target: T1, PCSK9 (Homo sapiens, UniProt Q8NBP7); assay: PCSK9 Alexa FRET Plus TR-FRET assay
T1 construct: biotin (biotinylated); purchased
Method in brief: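 Compounds displace an AlexaFluor-labeled cyclic peptide (1920 nM solution, not final) from europium-tagged PCSK9; time-resolved FRET read after ≥2 h at room temperature. Ki derived from fitted IC50 and peptide KD, europium donor counts monitored to detect compound interference, results given in nanomolar.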

[2] = target: T1, PCSK9; assay: PCSK9 Alexa FRET Ultra TR-FRET assay
Method in brief: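 TR-FRET read after ≥2 h at room temperature between europium-PCSK9 and an AlexaFluor cyclic peptide, stated as a 1920 nM solution. Sigmoidal nonlinear regression gives IC50, and Ki in nM follows from the peptide KD; europium counts are monitored for compound interference.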

[3] = target: T1, PCSK9; assay: PCSK9 Alexa FRET Standard TR-FRET assay; conditions: Ki calculated from IC50 and KD of AF cyclic peptide Reagent A; 0.5 nM PCSK9, 20 nM AF cyclic peptide; read-out: Alexa FRET Stdt TR-FRET
Method in brief: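 Ki (nM) calculated from sigmoidal-fit IC50 and the KD of an AlexaFluor-labelled cyclic peptide (20 nM final) competing with compound for biotinylated PCSK9 (0.5 nM) bound to Eu-streptavidin (1.25 nM). Incubation at least 2 h, room temperature, HEPES pH 7.4 buffer with CaCl2; falling europium counts flag false positives.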

[4] = Ki calculated from IC50 and KD of AF cyclic peptide Reagent B, 0.5 nM PCSK9, 960 nM AF cyclic peptide, read-out: Alexa FRET Plus TR-FRET
[5] = Ki Ultra, calculated from IC50 and KD of AF cyclic peptide, 0.5 nM PCSK9, 960 nM AF cyclic peptide, read-out: Alexa FRET Ultra TR-FRET

T1 sequence (Q8NBP7 153-692): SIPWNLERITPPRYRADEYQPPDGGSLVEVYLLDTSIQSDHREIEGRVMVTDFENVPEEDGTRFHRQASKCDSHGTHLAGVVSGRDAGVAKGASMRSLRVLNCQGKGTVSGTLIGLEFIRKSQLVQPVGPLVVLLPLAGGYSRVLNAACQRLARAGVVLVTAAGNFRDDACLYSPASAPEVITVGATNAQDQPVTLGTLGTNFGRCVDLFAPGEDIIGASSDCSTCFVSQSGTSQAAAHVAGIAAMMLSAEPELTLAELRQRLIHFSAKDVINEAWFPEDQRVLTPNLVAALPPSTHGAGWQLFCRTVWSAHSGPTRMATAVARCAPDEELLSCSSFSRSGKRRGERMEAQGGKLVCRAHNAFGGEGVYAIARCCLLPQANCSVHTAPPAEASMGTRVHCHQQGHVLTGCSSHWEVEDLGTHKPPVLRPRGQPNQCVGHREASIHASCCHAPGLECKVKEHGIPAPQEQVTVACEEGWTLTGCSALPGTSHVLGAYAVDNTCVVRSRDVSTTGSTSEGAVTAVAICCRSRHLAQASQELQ

| Compound | Ki [1, 4] [nM] | Ki [2, 5] [nM] | Ki [3] [nM] | Ki [1] [nM] | Ki [2] [nM] |
| --- | --- | --- | --- | --- | --- |
| COc1ccc(C[C@@H]2NC(=O)[C@H]([C@@H](C)O)NC(=O)[C@@H]3[C@@H]4CCN3C(=O)[C@@H]3Cc5cn(c6ccc(F)cc56)CCCCCCN(Cc5ccc(cc5)CCNC(=O)[C@]5(C)CCCN5C2=O)C(=O)CCC(=O)N[C@@H](CNC(=O)COCCOCC[N+](C)(C)CCOCCNC(=O)COCCOCCNC(=O)COCCOCCNC(=O)CC[C@H](NC(=O)CC[C@H](NC(=O)CCCCCCCCCCCCCCC(=O)O)C(=O)O)C(=O)O)C(=O)N[C@H](C)C(=O)N[C@@H](Cc2cccc(c2)CNC(=O)CO4)C(=O)N3)cc1 [Ex-60] | 0.008 | 0.062 | < 1.26 | – | – |
| COc1ccc(C[C@@H]2NC(=O)[C@H]([C@@H](C)O)NC(=O)[C@@H]3[C@@H]4CCN3C(=O)[C@@H]3Cc5cn(c6ccc(F)cc56)CCCCCCN(Cc5ccc(cc5)CCNC(=O)[C@]5(C)CCCN5C2=O)C(=O)CCC(=O)N[C@@H](CNC(=O)COCCOCCNC(=O)CC[C@H](NC(=O)CCOCCOCC[N+](C)(C)CCNC(=O)COCCOCCNC(=O)COCCOCCNC(=O)CC[C@H](NC(=O)CCCCCCCCCCCCCCCCC(=O)O)C(=O)O)C(=O)O)C(=O)N[C@H](C)C(=O)N[C@@H](Cc2cccc(c2)CNC(=O)CO4)C(=O)N3)cc1 [Ex-61] | 0.049 | 0.131 | < 1.26 | – | – |
| COc1ccc(C[C@@H]2NC(=O)[C@H]([C@@H](C)O)NC(=O)[C@@H]3[C@@H]4CCN3C(=O)[C@@H]3Cc5cn(c6ccc(F)cc56)CCCCCCN(Cc5ccc(cc5)CCNC(=O)[C@]5(C)CCCN5C2=O)C(=O)CCC(=O)N[C@@H](CNC(=O)COCCOCC[N+](C)(C)CCNC(=O)COCCOCCNC(=O)COCCOCCNC(=O)CC[C@H](NC(=O)CCCCCCCCOCCCCCCCCC(=O)O)C(=O)O)C(=O)N[C@H](C)C(=O)N[C@@H](Cc2cccc(c2)CNC(=O)CO4)C(=O)N3)cc1 [Ex-62] | – | – | < 1.26 | < 0.006 | 0.038 |
| COc1ccc(C[C@@H]2NC(=O)[C@H]([C@@H](C)O)NC(=O)[C@@H]3[C@@H]4CCN3C(=O)[C@@H]3Cc5cn(c6ccc(F)cc56)CCCCCCN(Cc5ccc(cc5)CCNC(=O)[C@]5(C)CCCN5C2=O)C(=O)CCC(=O)N[C@@H](CNC(=O)COCCOCCNC(=O)COCCOCCNC(=O)CC[C@H](NC(=O)CCCCCCCCCCCCCCCCC(=O)O)C(=O)O)C(=O)N[C@H](CNC(=O)CCOCCOCC[N+](C)(C)C)C(=O)N[C@@H](Cc2cccc(c2)CNC(=O)CO4)C(=O)N3)cc1 [Ex-63] | < 0.006 | 0.045 | < 1.26 | – | – |
| COc1ccc(C[C@@H]2NC(=O)[C@H]([C@@H](C)O)NC(=O)[C@@H]3[C@@H]4CCN3C(=O)[C@@H]3Cc5cn(c6ccc(F)cc56)CCCCCCN(Cc5ccc(cc5)CCNC(=O)[C@]5(C)CCCN5C2=O)C(=O)CCC(=O)N[C@@H](CNC(=O)CCOCCOCC[N+](C)(C)CCNC(=O)COCCOCCNC(=O)COCCOCCNC(=O)CC[C@H](NC(=O)CCCCCCCCCCCCCCC(=O)O)C(=O)O)C(=O)N[C@H](CNC(=O)CCOCCOCC[N+](C)(C)C)C(=O)N[C@@H](Cc2cccc(c2)CNC(=O)CO4)C(=O)N3)cc1 [Ex-64] | 0.012 | 0.028 | < 1.26 | – | – |
| COc1ccc(C[C@@H]2NC(=O)[C@H]([C@@H](C)O)NC(=O)[C@@H]3[C@@H]4CCN3C(=O)[C@@H]3Cc5cn(c6ccc(F)cc56)CCCCCCN(Cc5ccc(cc5)CCNC(=O)[C@]5(C)CCCN5C2=O)C(=O)CCC(=O)N[C@@H](CNC(=O)COCCOCC[N+](C)(C)CCNC(=O)COCCOCCNC(=O)COCCOCCNC(=O)CC[C@H](NC(=O)CCCCCCCCCCCCCCCCC(=O)O)C(=O)O)C(=O)N[C@H](CNC(=O)CCOCCOCC[N+](C)(C)C)C(=O)N[C@@H](Cc2cccc(c2)CNC(=O)CO4)C(=O)N3)cc1 [Ex-65] | < 0.006 | 0.024 | < 1.26 | – | – |
| COc1ccc(C[C@@H]2NC(=O)[C@H]([C@@H](C)O)NC(=O)[C@@H]3[C@@H]4CCN3C(=O)[C@@H]3Cc5cn(c6ccc(F)cc56)CCCCCCN(Cc5ccc(cc5)CCNC(=O)[C@]5(C)CCCN5C2=O)C(=O)CCC(=O)N[C@@H](CNC(=O)COCCOCC[N+](C)(C)CCOCCNC(=O)COCCOCCNC(=O)COCCOCCNC(=O)CC[C@H](NC(=O)CC[C@H](NC(=O)CCCCCCCCCCCCCCC(=O)O)C(=O)O)C(=O)O)C(=O)N[C@H](CNC(=O)CCOCCOCC[N+](C)(C)C)C(=O)N[C@@H](Cc2cccc(c2)CNC(=O)CO4)C(=O)N3)cc1 [Ex-66] | 0.007 | 0.027 | < 1.26 | – | – |
| COc1ccc(C[C@@H]2NC(=O)[C@H]([C@@H](C)O)NC(=O)[C@@H]3[C@@H]4CCN3C(=O)[C@@H]3Cc5cn(c6ccc(F)cc56)CCCCCCN(Cc5ccc(cc5)CCNC(=O)[C@]5(C)CCCN5C2=O)C(=O)CCC(=O)N[C@@H](C)C(=O)N[C@H](CNC(=O)CCOCCOCC[N+](C)(C)CCNC(=O)COCCOCCNC(=O)COCCOCCNC(=O)CCC(CS(=O)(=O)O)NC(=O)CCCCCCCCCCCCCCCCC(=O)O)C(=O)N[C@@H](Cc2cccc(c2)CNC(=O)CO4)C(=O)N3)cc1 (stereo partly drawn) [Ex-67] | < 0.006 | 0.005 | < 1.26 | – | – |
| COc1ccc(C[C@@H]2NC(=O)[C@H]([C@@H](C)O)NC(=O)[C@@H]3[C@@H]4CCN3C(=O)[C@@H]3Cc5cn(c6ccc(F)cc56)CCCCCCN(Cc5ccc(cc5)CCNC(=O)[C@]5(C)CCCN5C2=O)C(=O)CCC(=O)N[C@@H](C)C(=O)N[C@H](CNC(=O)CCOCCOCC[N+](C)(C)CCNS(=O)(=O)CCCNS(=O)(=O)CCCNC(=O)CC[C@H](NC(=O)CCCCCCCCCCCCCCCCC(=O)O)C(=O)O)C(=O)N[C@@H](Cc2cccc(c2)CNC(=O)CO4)C(=O)N3)cc1 [Ex-68] | < 0.006 | 0.005 | < 1.26 | – | – |
| COc1ccc(C[C@@H]2NC(=O)[C@H]([C@@H](C)O)NC(=O)[C@@H]3[C@@H]4CCN3C(=O)[C@@H]3Cc5cn(c6ccc(F)cc56)CCCCCCN(Cc5ccc(cc5)CCNC(=O)[C@]5(C)CCCN5C2=O)C(=O)CCC(=O)N[C@@H](C)C(=O)N[C@H](CNC(=O)CCCCC[N+](C)(C)CCNC(=O)COCCOCCNC(=O)CCCCCCCCCCCCCCCCC(=O)O)C(=O)N[C@@H](Cc2cccc(c2)CNC(=O)CO4)C(=O)N3)cc1 [Example 1] | – | – | < 1.26 | < 0.006 | 0.007 |
| COc1ccc(C[C@@H]2NC(=O)[C@H]([C@@H](C)O)NC(=O)[C@@H]3[C@@H]4CCN3C(=O)[C@@H]3Cc5cn(c6ccc(F)cc56)CCCCCCN(Cc5ccc(cc5)CCNC(=O)[C@]5(C)CCCN5C2=O)C(=O)CCC(=O)N[C@@H](C)C(=O)N[C@H](CNC(=O)CCCCC[N+](C)(C)CCNC(=O)COCCOCCNC(=O)COCCOCCNC(=O)CC[C@H](NC(=O)CCCCCCCCCCCCCCCCC(=O)O)C(=O)O)C(=O)N[C@@H](Cc2cccc(c2)CNC(=O)CO4)C(=O)N3)cc1 [Example 2] | – | – | < 1.26 | 0.014 | 0.006 |
| COc1ccc(C[C@@H]2NC(=O)[C@H]([C@@H](C)O)NC(=O)[C@@H]3[C@@H]4CCN3C(=O)[C@@H]3Cc5cn(c6ccc(F)cc56)CCCCCCN(Cc5ccc(cc5)CCNC(=O)[C@]5(C)CCCN5C2=O)C(=O)CCC(=O)N[C@@H](C)C(=O)N[C@H](CNC(=O)CCCCC[N+](C)(C)CCNC(=O)COCCOCCNC(=O)COCCOCCNC(=O)CC[C@H](NC(=O)CCCCCCCCCCCCCCC(=O)O)C(=O)O)C(=O)N[C@@H](Cc2cccc(c2)CNC(=O)CO4)C(=O)N3)cc1 [Example 3] | – | – | < 1.26 | < 0.006 | 0.005 |
| COc1ccc(C[C@@H]2NC(=O)[C@H]([C@@H](C)O)NC(=O)[C@@H]3[C@@H]4CCN3C(=O)[C@@H]3Cc5cn(c6ccc(F)cc56)CCCCCCN(Cc5ccc(cc5)CCNC(=O)[C@]5(C)CCCN5C2=O)C(=O)CCC(=O)N[C@@H](C)C(=O)N[C@H](CNC(=O)CCOCCOCC[N+](C)(C)CCNC(=O)COCCOCCNC(=O)COCCOCCNC(=O)CC[C@H](NC(=O)CCCCCCCCCCCCCCC(=O)O)C(=O)O)C(=O)N[C@@H](Cc2cccc(c2)CNC(=O)CO4)C(=O)N3)cc1 [Example 4] | – | – | < 1.26 | < 0.006 | 0.003 |
| COc1ccc(C[C@@H]2NC(=O)[C@H]([C@@H](C)O)NC(=O)[C@@H]3[C@@H]4CCN3C(=O)[C@@H]3Cc5cn(c6ccc(F)cc56)CCCCCCN(Cc5ccc(cc5)CCNC(=O)[C@]5(C)CCCN5C2=O)C(=O)CCC(=O)N[C@@H](C)C(=O)N[C@H](CNC(=O)COCCOCCNC(=O)COCCOCCNC(=O)CCCCC[N+](C)(C)CCNC(=O)CC[C@H](NC(=O)CCCCCCCCCCCCCCCCC(=O)O)C(=O)O)C(=O)N[C@@H](Cc2cccc(c2)CNC(=O)CO4)C(=O)N3)cc1 [compound 30] | < 0.006 | 0.004 | < 1.26 | – | – |
| COc1ccc(C[C@@H]2NC(=O)[C@H]([C@@H](C)O)NC(=O)[C@@H]3[C@@H]4CCN3C(=O)[C@@H]3Cc5cn(c6ccc(F)cc56)CCCCCCN(Cc5ccc(cc5)CCNC(=O)[C@]5(C)CCCN5C2=O)C(=O)CCC(=O)N[C@@H](C)C(=O)N[C@H](CNC(=O)COCCOCCNC(=O)CCOCCOCC[N+](C)(C)CCNC(=O)COCCOCCNC(=O)COCCOCCNC(=O)CC[C@H](NC(=O)CCCCCCCCCCCCCCCCC(=O)O)C(=O)O)C(=O)N[C@@H](Cc2cccc(c2)CNC(=O)CO4)C(=O)N3)cc1 [compound 32] | 0.009 | 0.011 | < 1.26 | – | – |
